Reference: patent US9409905B2, “Antibacterial compounds and methods for use” (PTC THERAPEUTICS, INC., priority 2011, dated 2016)
Converted amounts (≈) assume the structure as drawn.

What was measured:
[1] = test system: Pseudomonas aeruginosa (P. aeruginosa) 27853; assay: Antibacterial activity, MIC (Table 5); format: cell-based; details: P. aeruginosa 27853, read-out: MIC, 27853
Procedure, shortened: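 Values are MICs in μg/mL, read as the lowest concentration at which no growth is visible by eye. They were determined by a microbroth dilution method.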

E. coli LZ3111 = assay: Antibacterial activity, MIC, quinolone resistant strain (Table 2); format: cell-based; details: Escherichia coli, LZ3111, read-out: MIC LZ3111
Procedure, shortened: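 MIC values (μg/mL) came from a microbroth dilution assay, scored as the lowest drug concentration at which no growth was visible by eye.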

K. pneumoniae MXX1232 = assay: Antibacterial activity, MIC, resistant strain (Table 4); format: cell-based; details: Klebsiella pneumoniae, MXX1232; resistant K. pneumoniae MMX1232, multi-drug resistant clinical isolate; read-out: MIC, MMX1232
Procedure, shortened: (§1)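 MIC (μg/mL) by microbroth dilution, taken as the lowest drug concentration preventing macroscopically visible growth. MXX strains are multi-drug resistant clinical isolates.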

A. baumannii MXX2240 = assay: as above; format: cell-based; details: Acinetobacter baumannii, MXX2240; resistant A. baumannii MMX2240, multi-drug resistant clinical isolate; read-out: MIC, MMX2240
Procedure, shortened: as §1

[2] = test system: Staphylococcus aureus (S. aureus) 29213; assay: Antibacterial activity, microbroth dilution MIC (Table 1); format: cell-based; details: microbroth dilution, Gram-positive S. aureus 29213, read-out: MIC, 29213
Procedure, shortened: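 Broth microdilution; endpoint = no macroscopic growth; value = lowest inhibiting concn, μg/mL.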

[3] = test system: Escherichia coli (E. coli) BAS849; assay: as above; format: cell-based; details: microbroth dilution, super sensitive Gram-negative E. coli BAS849, read-out: MIC, BAS849
Procedure, shortened: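 Growth inhibition by microbroth dilution. MIC = lowest μg/mL with no visible growth. Strain 25922 is the control Gram-negative; BAS849 is hypersensitive.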

[4] = test system: Klebsiella pneumoniae (K. pneumoniae) 35657; assay: Antibacterial activity, MIC (Table 4); format: cell-based; details: K. pneumoniae 35657, read-out: MIC, 35657
Procedure, shortened: as §1

[5] = test system: Acinetobacter baumannii (A. baumannii) BAA747; assay: Antibacterial activity, MIC (Table 4); format: cell-based; details: A. baumannii BAA747, read-out: MIC, BAA747
Procedure, shortened: as §1

E. coli 25922 = assay: Antibacterial activity, microbroth dilution MIC (Table 1); format: cell-based, Escherichia coli; details: Escherichia coli; microbroth dilution; control Gram-negative E. coli 25922 strain; read-out: MIC, 25922
Procedure, shortened: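 Potency is reported as minimum inhibitory concentration in μg/mL, determined by broth microdilution as the lowest level of compound that stops growth visible to the eye.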

Row | Compound | MIC [1] [µg/mL] | MIC (E. coli LZ3111) [µg/mL] | MIC (K. pneumoniae MXX1232) [µg/mL] | MIC (A. baumannii MXX2240) [µg/mL] | MIC [2] [µg/mL] | MIC [3] [µg/mL] | MIC [4] [µg/mL] | MIC [5] [µg/mL] | MIC (E. coli 25922) [µg/mL]
1 | CCc1c(-c2cc3cc(F)ccc3n2C)[nH]c(=O)c(C(=O)O)c1O [Cpd 406, 5-ethyl-6-(5-fluoro-1-methyl-1H-indol-2-yl)-4-hydroxy-2-oxo-1,2-dihydropyridine-3-carboxylic acid] | 12.5 to 150 (≈ 37.8 to 454 µM) | 12.5 to 150 (≈ 37.8 to 454 µM) | 12.5 to 150 (≈ 37.8 to 454 µM) | 12.5 to 150 (≈ 37.8 to 454 µM) | 3.5 to 12.5 (≈ 10.6 to 37.8 µM) | 1 to 3.5 (≈ 3.03 to 10.6 µM) | 12.5 to 150 (≈ 37.8 to 454 µM) | 12.5 to 150 (≈ 37.8 to 454 µM) | 12.5 to 150 (≈ 37.8 to 454 µM)
2 | CCc1ccc2c(c1)cc(-c1[nH]c(=O)c(C(=O)O)c(O)c1CC)n2C [Cpd 407, 5-ethyl-6-(5-ethyl-1-methyl-1H-indol-2-yl)-4-hydroxy-2-oxo-1,2-dihydropyridine-3-carboxylic acid] | 12.5 to 150 (≈ 36.7 to 441 µM) | 12.5 to 150 (≈ 36.7 to 441 µM) | 12.5 to 150 (≈ 36.7 to 441 µM) | 12.5 to 150 (≈ 36.7 to 441 µM) | 1 to 3.5 (≈ 2.94 to 10.3 µM) | 1 to 3.5 (≈ 2.94 to 10.3 µM) | 12.5 to 150 (≈ 36.7 to 441 µM) | 12.5 to 150 (≈ 36.7 to 441 µM) | 12.5 to 150 (≈ 36.7 to 441 µM)
3 | CCc1ccc2cc(-c3[nH]c(=O)c(C(=O)O)c(O)c3CC)n(C)c2c1 [Cpd 408, 5-ethyl-6-(6-ethyl-1-methyl-1H-indol-2-yl)-4-hydroxy-2-oxo-1,2-dihydropyridine-3-carboxylic acid] | 12.5 to 150 (≈ 36.7 to 441 µM) | 12.5 to 150 (≈ 36.7 to 441 µM) | 12.5 to 150 (≈ 36.7 to 441 µM) | 12.5 to 150 (≈ 36.7 to 441 µM) | 1 to 3.5 (≈ 2.94 to 10.3 µM) | 1 to 3.5 (≈ 2.94 to 10.3 µM) | 12.5 to 150 (≈ 36.7 to 441 µM) | 12.5 to 150 (≈ 36.7 to 441 µM) | 12.5 to 150 (≈ 36.7 to 441 µM)
4 | CCCc1ccc2c(c1)cc(-c1[nH]c(=O)c(C(=O)O)c(O)c1CC)n2C [Cpd 409, 5-ethyl-4-hydroxy-6-(1-methyl-5-propyl-1H-indol-2-yl)-2-oxo-1,2-dihydropyridine-3-carboxylic acid] | 12.5 to 150 (≈ 35.3 to 423 µM) | 12.5 to 150 (≈ 35.3 to 423 µM) | 12.5 to 150 (≈ 35.3 to 423 µM) | 12.5 to 150 (≈ 35.3 to 423 µM) | 3.5 to 12.5 (≈ 9.88 to 35.3 µM) | 1 to 3.5 (≈ 2.82 to 9.88 µM) | 12.5 to 150 (≈ 35.3 to 423 µM) | 12.5 to 150 (≈ 35.3 to 423 µM) | 12.5 to 150 (≈ 35.3 to 423 µM)
5 | CCCc1ccc2cc(-c3[nH]c(=O)c(C(=O)O)c(O)c3CC)n(C)c2c1 [Cpd 410, 5-ethyl-4-hydroxy-6-(1-methyl-6-propyl-1H-indol-2-yl)-2-oxo-1,2-dihydropyridine-3-carboxylic acid] | 12.5 to 150 (≈ 35.3 to 423 µM) | 12.5 to 150 (≈ 35.3 to 423 µM) | 12.5 to 150 (≈ 35.3 to 423 µM) | 12.5 to 150 (≈ 35.3 to 423 µM) | 3.5 to 12.5 (≈ 9.88 to 35.3 µM) | 1 to 3.5 (≈ 2.82 to 9.88 µM) | 12.5 to 150 (≈ 35.3 to 423 µM) | 12.5 to 150 (≈ 35.3 to 423 µM) | 12.5 to 150 (≈ 35.3 to 423 µM)
6 | CCc1c(-c2cc3cc(F)c(C)cc3n2C)[nH]c(=O)c(C(=O)O)c1O [Cpd 411, 5-ethyl-6-(5-fluoro-1,6-dimethyl-1H-indol-2-yl)-4-hydroxy-2-oxo-1,2-dihydropyridine-3-carboxylic acid] | 12.5 to 150 (≈ 36.3 to 436 µM) | 12.5 to 150 (≈ 36.3 to 436 µM) | 12.5 to 150 (≈ 36.3 to 436 µM) | 12.5 to 150 (≈ 36.3 to 436 µM) | 3.5 to 12.5 (≈ 10.2 to 36.3 µM) | 1 to 3.5 (≈ 2.9 to 10.2 µM) | 12.5 to 150 (≈ 36.3 to 436 µM) | 12.5 to 150 (≈ 36.3 to 436 µM) | 12.5 to 150 (≈ 36.3 to 436 µM)
7 | CCc1c(-c2ccc3c(c2)cc2n3CC(N)C2)[nH]c(=O)c(C(=O)O)c1O.Cl (stereo not drawn) [Cpd 413, 6-(2-amino-2,3-dihydro-1H-pyrrolo[1,2-a]indol-7-yl)-5-ethyl-4-hydroxy-2-oxo-1,2-dihydropyridine-3-carboxylic acid hydrochloride] | 12.5 to 150 | 3.5 to 12.5 | 12.5 to 150 | 12.5 to 150 | 12.5 to 150 | < 1 | < 1 | 3.5 to 12.5 | < 1
8 | CCc1c(-c2ccc3c(c2)cc2n3CC(NC)CC2)[nH]c(=O)c(C(=O)O)c1O.Cl (stereo not drawn) [Cpd 414, 5-ethyl-4-hydroxy-6-(7-(methylamino)-6,7,8,9-tetrahydropyrido[1,2-a]indol-2-yl)-2-oxo-1,2-dihydropyridine-3-carboxylic acid hydrochloride] | 12.5 to 150 | 3.5 to 12.5 | 12.5 to 150 | 12.5 to 150 | 12.5 to 150 | < 1 | < 1 | 3.5 to 12.5 | 1 to 3.5
9 | CCc1c(-c2ccc3c(c2)cc2n3CC(NC)C2)[nH]c(=O)c(C(=O)O)c1O.Cl (stereo not drawn) [Cpd 416, 5-ethyl-4-hydroxy-6-(2-(methylamino)-2,3-dihydro-1H-pyrrolo[1,2-a]indol-7-yl)-2-oxo-1,2-dihydropyridine-3-carboxylic acid hydrochloride] | 12.5 to 150 | 12.5 to 150 | 12.5 to 150 | 12.5 to 150 | 12.5 to 150 | 3.5 to 12.5 | 12.5 to 150 | 12.5 to 150 | 12.5 to 150
10 | Cc1c(-c2ccc3c(c2)cc2n3CC(N(C)C)C2)[nH]c(=O)c(C(=O)O)c1O.Cl (stereo not drawn) [Cpd 417, 6-(2-(dimethylamino)-2,3-dihydro-1H-pyrrolo[1,2-a]indol-7-yl)-4-hydroxy-5-methyl-2-oxo-1,2-dihydropyridine-3-carboxylic acid hydrochloride] | 12.5 to 150 | < 1 | 12.5 to 150 | < 1 | 12.5 to 150 | 1 to 3.5 | 12.5 to 150 | 3.5 to 12.5 | 12.5 to 150
11 | CCc1c(-c2ccc3c(c2)cc2n3CC(N(C)C)C2)[nH]c(=O)c(C(=O)O)c1O.Cl (stereo not drawn) [Cpd 418, 6-(2-(dimethylamino)-2,3-dihydro-1H-pyrrolo[1,2-a]indol-7-yl)-5-ethyl-4-hydroxy-2-oxo-1,2-dihydropyridine-3-carboxylic acid hydrochloride] | 12.5 to 150 | < 1 | 12.5 to 150 | 3.5 to 12.5 | 12.5 to 150 | 3.5 to 12.5 | 3.5 to 12.5 | 3.5 to 12.5 | 3.5 to 12.5
12 | CCc1c(-c2ccc3c(c2)cc2n3CC(N(C)CC)C2)[nH]c(=O)c(C(=O)O)c1O (stereo not drawn) [Cpd 419, 5-ethyl-6-(2-(ethyl(methyl)amino)-2,3-dihydro-1H-pyrrolo[1,2-a]indol-7-yl)-4-hydroxy-2-oxo-1,2-dihydropyridine-3-carboxylic acid] | 12.5 to 150 (≈ 31.6 to 379 µM) | 1 to 3.5 (≈ 2.53 to 8.85 µM) | 12.5 to 150 (≈ 31.6 to 379 µM) | 3.5 to 12.5 (≈ 8.85 to 31.6 µM) | 3.5 to 12.5 (≈ 8.85 to 31.6 µM) | < 1 | 3.5 to 12.5 (≈ 8.85 to 31.6 µM) | 3.5 to 12.5 (≈ 8.85 to 31.6 µM) | 3.5 to 12.5 (≈ 8.85 to 31.6 µM)
13 | CCCN(C)C1Cc2cc3cc(-c4[nH]c(=O)c(C(=O)O)c(O)c4CC)ccc3n2C1 (stereo not drawn) [Cpd 420, 5-ethyl-4-hydroxy-6-(2-(methyl(propyl)amino)-2,3-dihydro-1H-pyrrolo[1,2-a]indol-7-yl)-2-oxo-1,2-dihydropyridine-3-carboxylic acid] | 12.5 to 150 (≈ 30.5 to 366 µM) | 3.5 to 12.5 (≈ 8.55 to 30.5 µM) | 12.5 to 150 (≈ 30.5 to 366 µM) | 3.5 to 12.5 (≈ 8.55 to 30.5 µM) | 3.5 to 12.5 (≈ 8.55 to 30.5 µM) | < 1 | 12.5 to 150 (≈ 30.5 to 366 µM) | 12.5 to 150 (≈ 30.5 to 366 µM) | 3.5 to 12.5 (≈ 8.55 to 30.5 µM)
14 | Cc1c(-c2ccc3cc[nH]c3c2)[nH]c(=O)c(C(=O)O)c1O [Cpd 424, 4-hydroxy-6-(1H-indol-6-yl)-5-methyl-2-oxo-1,2-dihydropyridine-3-carboxylic acid] | 12.5 to 150 (≈ 44 to 528 µM) | < 1 | 12.5 to 150 (≈ 44 to 528 µM) | < 1 | 3.5 to 12.5 (≈ 12.3 to 44 µM) | 3.5 to 12.5 (≈ 12.3 to 44 µM) | 12.5 to 150 (≈ 44 to 528 µM) | 12.5 to 150 (≈ 44 to 528 µM) | 12.5 to 150 (≈ 44 to 528 µM)
